Test results published in PubChem BioAssay AID2305 (GlaxoSmithKline (GSK), 2010).

Test system: P. falciparum 3D7 growth, pLDH absorbance
Test: blood-stage malaria parasite growth potency – strain 3D7, dose response (AID 2305)

Row | SMILES | IC50
1 | COc1ccc(NC(=O)[C@H](CC(C)C)Nc2cc(C)nc(NCCc3ccccc3)n2)cc1 | 890 nM
2 | CN1CCN(CCCN(Cc2ccc(-c3cccc(CNCc4ccc5c(c4)OCO5)c3)cc2)C(=O)NCCc2ccccc2)CC1 | 840 nM
3 | CC(CCc1ccccc1)NCC(O)c1cccc(C(F)(F)F)c1 (stereo unspecified) | 710 nM
4 | Cc1onc(-c2ccccc2)c1C(=O)Nc1nc(-c2ccccn2)nc2ccsc12 | 690 nM
5 | COc1ccc(Nc2nccc(N3CCC(NC(=O)c4cc5ccccc5s4)C3)n2)cc1 (stereo unspecified) | 760 nM
6 | Cc1cc(O)cc2c(C3CCN(CC4CCC(NC(=O)/C=C/c5ccccc5Cl)CC4)CC3)c[nH]c12 (stereo unspecified) | 900 nM
7 | CC(Nc1ccc2c(c1)OCCO2)C(=O)Nc1cc(C(F)(F)F)ccc1N1CCOCC1 (stereo unspecified) | 410 nM
8 | O=C(Nc1ccccc1F)N(CCCn1ccnc1)Cc1csc(-c2ccc(CNCc3ccccc3)cc2)n1 | 840 nM
9 | O=C(Nc1cccc(-c2cc(-c3c(Cl)cccc3Cl)no2)c1)c1cncc(-c2cccs2)c1 | 950 nM
10 | Cc1[nH]c2ccccc2c1C1=CCN(CCCCC2(C)C(=O)Nc3ccccc32)CC1 (stereo unspecified) | 230 nM
11 | Cc1cc(N(C)C)nc(Nc2ccc(NC(=O)c3ccccc3F)cc2)n1 | 1160 nM
12 | COc1cc2nc(NCC3CCCCC3)nc(NCc3ccccc3)c2cc1OC | 140 nM
13 | Cc1cccc(CNc2nc(C)cc(NCCC(=O)NCc3cccc(F)c3)n2)c1 | 850 nM
14 | COc1ccc(-c2ccc(NC(=O)c3ccc(Cl)cc3)cc2)cc1CN1CCN(C)CC1 | 820 nM
15 | CC(C)(C)c1ccc(OC(=O)c2ccc(NC(=O)N[C@@H](Cc3ccc(O)cc3)C(=O)NC3CCN(Cc4ccc(O)cc4)C3)cc2)cc1 (stereo partly specified) | 810 nM
16 | Cc1cccc(OCC(=O)Nc2cccc(NC(=O)COc3cccc(C)c3)n2)c1 | 670 nM
17 | CCN1CCC(N(Cc2ccc(-c3ccc(C(F)(F)F)cc3)cc2)C(=O)Cn2c(CCc3cccc(F)c3F)cc(=O)c3ccccc32)C1 (stereo unspecified) | 1010 nM
18 | O=C(Nc1ccc(F)c(C(F)(F)F)c1)NC1CCN(CCCCCNC(=O)[C@@H]2C[C@H]2c2ccc(Cl)c(Cl)c2)CC1 | 660 nM
19 | CC(=O)Nc1ccc(CN2CCC(NC(=O)c3ccc(-c4cccc(F)c4)s3)CC2)cc1 | 1430 nM
20 | CN(C)CCN(C)C(=O)c1cc(-c2ccncc2)c(-c2ccc(Cl)c(O)c2)o1 | 1050 nM
21 | O=C(c1ccc([N+](=O)[O-])o1)N1CCN(c2ccccc2)CC1 | 40 nM
22 | CC(C)(CNCc1ccc(Cl)cc1)c1nc(-c2ccc(Cl)c(O)c2)c(-c2ccncc2)[nH]1 | 480 nM
23 | CCCCCCNCCOc1ccc(-c2nc(-c3ccccc3)c(-c3ccccc3)[nH]2)cc1 | 670 nM
24 | CCOC(=O)C(C)(C)Oc1ccc(C(=C2CC(C)(C)CC(C)(C)C2)c2ccc(O)cc2)cc1 | 1130 nM

Row | SMILES | IC50
25 | ON=C1CCc2cc(-c3nc(-c4cccc(OCCNCc5ccc(F)cc5)c4)[nH]c3-c3ccncc3)ccc21 | 890 nM
26 | CNCCNCc1cccc(-c2cccc(-c3nc4ccc(C(F)(F)F)cc4[nH]3)c2)c1 | 200 nM
27 | O=C(/C=C/c1ccc(Cl)c(Cl)c1)NCCCCCN1CCC(CCCNC(=O)Nc2ccc(C(F)(F)F)cc2)CC1 | 870 nM
28 | CN(CCCN(C)c1cc(NC(=O)c2cccc(F)c2)ccn1)Cc1cccc(O)c1 | 1920 nM
29 | CC(C)COc1ccc(Cl)cc1Cc1ccc(-c2nc3ccc(F)cc3[nH]2)o1 | 850 nM
30 | COc1c(C2CCN(CCCCNC(=O)c3cc(-c4ccc(Cl)cc4)oc3C)CC2)ccc2c1CCCC2 | 880 nM
31 | COc1ccc(CCN(C)CCCOc2ccc(NC(=O)COc3cccc4sc5ccccc5c(=O)c34)cc2)cc1OC | 460 nM
32 | Cc1cc(-c2ccc(CNCCc3cccs3)cc2)ccc1S(=O)(=O)NCc1ccccc1 | 1140 nM
33 | c1cn(CCCNc2ncc(-c3ccsc3)c(-c3nccs3)n2)cn1 | 650 nM
34 | CC1CCCN(Cc2cc(Cl)cc(Cl)c2O)C1 (stereo unspecified) | 930 nM
35 | COc1cccc(-c2cc(-c3ccc(NC(=O)c4ccccc4)cc3)c3c(N)ncnc3n2)c1 | 590 nM
36 | Cc1cc2ncn(-c3nccc(NCc4cccnc4)n3)c2cc1C | 660 nM
37 | Cc1oc(-c2ccc(Cl)cc2)cc1C(=O)NCCC1CCN(CCCCCNC(=O)/C=C/c2ccc(Cl)c(Cl)c2)CC1 | 450 nM
38 | Cn1c(NC(=O)C2CCC(CNC(=O)c3ccc(O)c(-c4ccc(Cl)c(Cl)c4)c3)CC2)nc2ccccc21 (stereo unspecified) | 650 nM
39 | CC(C)(C)C(=O)N1CCN(c2ccc([N+](=O)[O-])c(NC3CC3)c2)CC1 | 940 nM
40 | Cc1nn(-c2ccccc2)nc1C(=O)N(Cc1ccc(-c2ccc(CNCCc3ccc(S(C)(=O)=O)cc3)cn2)cc1)C(C)CN(C)C (stereo unspecified) | 680 nM
41 | CC(Cc1ccc(COc2ccc(CC(CO)NCCc3cccc(Cl)c3)cc2)cc1)NCCc1cccc(Cl)c1 (stereo unspecified) | 820 nM
42 | CN(C)CCN1CCN(CCCN2c3ccccc3Sc3ccc(C(F)(F)F)cc32)CC1 | 760 nM
43 | CN1CCN(c2ccnc3ccc(NC(=O)Nc4ccc(-c5ccncc5)c5ccccc45)cc23)CC1 | 310 nM
44 | COc1cc(Cc2cnc3nc(N)nc(N)c3c2C)cc(OC)c1OC | 60 nM
45 | COc1ccc(CNC2CCN(C)CC2)cc1-c1ccc(S(=O)(=O)NCc2ccccc2)c(C)c1 | 990 nM
46 | NS(=O)(=O)c1cccc(Nc2nccc(-c3cnn4ncccc34)n2)c1 | 660 nM
47 | CCCCNCc1ccc(-c2nc(CN(CCCn3ccnc3)C(=O)N[C@@H]3C[C@H]3c3ccccc3)cs2)cc1 | 740 nM
48 | CCN(CC)CCCC(C)Nc1ccnc2[nH]c3ccccc3c12 (stereo unspecified) | 1770 nM

Row | SMILES | IC50
49 | Cc1ccc(CCC(C)NCC(O)c2cccc(C(F)(F)F)c2)cc1 (stereo unspecified) | 560 nM
50 | O=C(/C=C/c1ccc(Cl)c(Cl)c1)NCCCCCN1CCCN(C(=S)Nc2cccc(Cl)c2)CC1 | 1050 nM
51 | O=[N+]([O-])c1cccc(-c2nc(-c3ccc(Br)cc3)[nH]c2-c2ccc(Br)cc2)c1 | 760 nM
52 | O=c1cc(NCCCNCc2ccc(Cl)c(Cl)c2)[nH]c2cc(Cl)ccc12 | 920 nM
53 | COc1ccc2nccc(NN=Cc3ccccc3Cl)c2c1 | 660 nM
54 | Cc1cc(N[C@@H](Cc2ccccc2)C(=O)NCc2cccs2)nc(NCCOc2ccccc2)n1 | 1480 nM
55 | CCN1CCN(C(=O)NC(C(=O)N(C)Cc2ccc(-c3ccc(C(F)(F)F)cc3)cc2)c2cccs2)C(=O)C1=O (stereo unspecified) | 360 nM
56 | O=C(/C=C/c1ccc(Cl)c(Cl)c1)NCCCCCCN1CCCN(C(=O)Nc2cccc(C(F)(F)F)c2)CC1 | 790 nM
57 | NC(N)=NN=Cc1c2ccccc2c(Cl)c2cc(Cl)ccc12 | 790 nM
58 | N#Cc1cccc(C(=O)Nc2ccc(-c3ccc(CN4CCCC4)cc3)cc2)c1 | 1150 nM
59 | CN1CCCC(CN2CCN(Cc3cccc(-c4cccc(-c5nc6ccccc6[nH]5)c4)c3)CC2)C1 (stereo unspecified) | 140 nM
60 | COc1cc(OC)c(NC(=O)C2c3ccccc3C(=O)N(C)C2c2cccs2)cc1Cl (stereo unspecified) | 760 nM
61 | Cc1cc(Nc2ccc3ccccc3c2)n2ncnc2n1 | 170 nM
62 | CCC[C@@H]([C@@H](CC(C)C)C(=O)N[C@@H](CCCN=C(N)NS(C)(=O)=O)C(=O)Nc1nccs1)N(O)C=O | 940 nM
63 | CC(C)(C)c1ccc(NC(=O)c2cccc(CN3CCCN(Cc4cccc(O)c4)CC3)c2)cc1 | 550 nM
64 | O=C(NCc1ccc(C(=O)NC2CCCCCC2)cc1)c1ccc(O)c(-c2ccc(Cl)c(Cl)c2)c1 | 1060 nM
65 | Clc1cnc2ccc3c(c2c1CCN1CCC(NCc2cc4c(cn2)OCCO4)CC1)OCCO3 | 720 nM
66 | Cc1cc(CNCCCCCCCNCc2ccc(-c3ccccc3)cc2)ccc1O | 490 nM
67 | c1cc(CNCc2ccc3c(c2)OCO3)cc(-c2cccc(CNc3ccc4ncccc4c3)c2)c1 | 760 nM
68 | Oc1ccccc1CN1CCN(C(c2ccccc2)c2ccccc2)CC1 | 760 nM
69 | CC1CC(NCCCNc2cc(=O)c3ccccc3[nH]2)c2cc(Cl)c(Cl)c(Cl)c21 (stereo unspecified) | 720 nM
70 | COc1cc2nc(NCc3nc4ccccc4[nH]3)nc(N)c2cc1OC | 890 nM
71 | OCC1CCN(Cc2ccc(-c3ccc(-c4nc5ccccc5[nH]4)cc3)cc2)CC1 | 900 nM
72 | FC(F)(F)c1ccc(/C=C/c2cncnc2Nc2ccc3nc(Cc4ccccc4)[nH]c3c2)cc1 | 610 nM

Row | SMILES | IC50
73 | Cc1cccc2[nH]c(-c3ccc(-c4cccc(CN5CCC(C(N)=O)CC5)c4)s3)nc12 | 1260 nM
74 | O=C(Nc1ccc(F)c(Cl)c1)NC1CCN(c2ccnc3cc(Cl)ccc23)C1 (stereo unspecified) | 210 nM
75 | Cc1cc(OCC2CCN(c3ncc(C(=O)Nc4ccccc4)cc3Cl)CC2)ccc1F | 900 nM
76 | O=C(N[C@@H](CC1CCCCC1)C(=O)NCCN1CCCCC1)c1ccc(O)c(-c2ccc(Cl)c(Cl)c2)c1 | 150 nM
77 | Cc1cc(N[C@@H](Cc2ccccc2)C(=O)Nc2ccccc2)nc(NCCc2ccccn2)n1 | 870 nM
78 | O=c1c2ccc(F)cc2sn1-c1ccc(Cl)cc1 | 1150 nM
79 | CC(=O)Nc1ccc(CN(Cc2ccc(OC(C)(C)C)cc2)Cc2ccc3c(c2)OCCO3)cc1 | 930 nM
80 | O=C1NC(C(=O)Nc2ccccc2)C(c2ccccc2)S1 (stereo unspecified) | 170 nM
81 | O=C(CCc1cccnc1)Nc1cccc(-c2ccc(-c3nc4ccc(C(F)(F)F)cc4[nH]3)s2)c1 | 950 nM
82 | c1ccc(C2CCN(Cc3ccc(-c4c[nH]c5nc(NC6CCCC6)ncc45)cc3)CC2)cc1 | 1010 nM
83 | CCC(N)(C#Cc1ccc(-c2c(C)[nH]c(C)c(Br)c2=O)cc1)CC | 40 nM
84 | COc1ccc(Nc2nccc(NCCNC(=O)c3cc4ccccc4s3)n2)cc1 | 1020 nM
85 | COc1ccc(S(=O)(=O)NCCCC2CCN(CCCCCNC(=O)C=Cc3ccc(Cl)c(Cl)c3)CC2)cc1 | 1040 nM
86 | O=C(Nc1ccc(-c2nc3ccccc3[nH]2)cc1)c1cccc(S(=O)(=O)N2CCOCC2)c1 | 900 nM
87 | CCCC(C)Nc1nc(C)cc(N[C@@H](CC(C)C)C(=O)NCc2cccc(F)c2)n1 (stereo partly specified) | 1000 nM
88 | O=C(Nc1ccc(Br)cc1)N1CCC(n2c(-c3ccccc3)nc3cccnc32)CC1 | 760 nM
89 | CCN(CC)C(=O)C(=O)c1c[nH]c2ccc(Cl)cc12 | 80 nM
90 | COc1ccc2nccc(NC(=O)N3CCC(NCCOc4cc(F)cc(F)c4)CC3)c2n1 | 770 nM
91 | CSc1ccc2ccccc2c1CNCCCCCCNCc1c(SC)ccc2ccccc12 | 800 nM
92 | CC1=C(C(=O)Nc2cc3cn[nH]c3cc2F)C(c2cccc(O)c2F)CC(=O)N1 (stereo unspecified) | 630 nM
93 | c1cc2nc(CCCCCc3nc4ccc(C5=N[C@@H]6CCCC[C@@H]6N5)cc4[nH]3)[nH]c2cc1C1=N[C@@H]2CCCC[C@@H]2N1 | 200 nM
94 | COc1ccc2nccc(CCC3(O)CCC(NCc4cc5c(cc4F)SCC(=O)N5)CC3)c2c1 (stereo unspecified) | 670 nM
95 | CCCc1cc(OC)c(CC2c3cccc(O)c3CCN2C)cc1OC (stereo unspecified) | 300 nM
96 | O=C(Cn1c(CCc2cccc(F)c2F)cc(=O)c2cccnc21)N(CCN1CCCC1)Cc1ccc(-c2ccc(C(F)(F)F)cc2)cc1 | 890 nM
